Where two headings read alike, the source gives them in different places.
Tests used:
androgen receptor (AR) = target: T1, androgen receptor (AR) (Homo sapiens, UniProt P10275); experiment: MDA-MB-453 Androgen Receptor Transactivation Assay (PSA-Luc reporter, 3 nM DHT); assay type: cell-based; details: MDA-MB-453 cells, antagonism in presence of 3 nM DHT, 48 hour incubation
T1 sequence (P10275 1-920): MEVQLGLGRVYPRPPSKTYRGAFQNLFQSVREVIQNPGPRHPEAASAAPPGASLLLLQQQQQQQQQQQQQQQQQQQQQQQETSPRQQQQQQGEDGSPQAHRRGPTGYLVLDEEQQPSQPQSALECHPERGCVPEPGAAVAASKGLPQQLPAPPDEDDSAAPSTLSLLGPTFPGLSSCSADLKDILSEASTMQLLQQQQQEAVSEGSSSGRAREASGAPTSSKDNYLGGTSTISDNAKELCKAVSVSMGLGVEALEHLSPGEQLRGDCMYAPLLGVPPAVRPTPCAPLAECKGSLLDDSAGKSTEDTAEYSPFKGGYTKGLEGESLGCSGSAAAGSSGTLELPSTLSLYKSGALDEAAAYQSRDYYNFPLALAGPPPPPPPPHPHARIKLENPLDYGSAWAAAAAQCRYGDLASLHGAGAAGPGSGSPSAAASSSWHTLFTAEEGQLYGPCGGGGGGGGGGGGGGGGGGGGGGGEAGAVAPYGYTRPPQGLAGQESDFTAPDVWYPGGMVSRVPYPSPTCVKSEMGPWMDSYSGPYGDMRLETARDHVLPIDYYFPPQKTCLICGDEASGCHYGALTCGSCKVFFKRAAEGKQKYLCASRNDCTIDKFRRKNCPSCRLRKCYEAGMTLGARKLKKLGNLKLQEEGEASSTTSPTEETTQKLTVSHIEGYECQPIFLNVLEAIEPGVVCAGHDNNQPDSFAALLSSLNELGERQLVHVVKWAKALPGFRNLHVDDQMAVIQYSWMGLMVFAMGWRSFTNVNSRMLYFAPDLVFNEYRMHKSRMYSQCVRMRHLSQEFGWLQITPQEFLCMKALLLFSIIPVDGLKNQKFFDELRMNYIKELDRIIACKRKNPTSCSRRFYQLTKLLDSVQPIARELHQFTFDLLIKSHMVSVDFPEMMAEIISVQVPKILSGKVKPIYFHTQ
Source text: Compounds can be tested in a cell based transactivation assay used to measure the antagonism of androgen receptor (AR) transcriptional activity. The transactivation assay provides a means of identifying antagonists that inhibit the effects of the native hormone dihydrotestosterone (DHT). […] The pGL3 PSA-Luc reporter plasmid is comprised of the cDNA for the firefly luciferase gene and the upstream promoter sequences containing the androgen response elements (AREs) of the prostate specific antigen (PSA). This plasmid functions as a reporter for the transcription-modulating activity of the AR. In order to detect antagonists, the transactivation assay is conducted in the presence of constant concentration of the natural AR hormone (DHT) to induce a defined reporter signal. Addition of increasing concentrations of the suspected antagonist will decrease the reporter signal (luciferase activity).
MDA-MB-453 and 22 RV1 cells were maintained in DMEM (Cellgro, Cat. #10-014-CM) or RPMI 1640 (Gibco Cat. #11875-085) respectively and supplemented with 10% FBS (Invitrogen/GIBCO Life Science). Cells were bulk transfected in flasks with 1.3 ug/ml pGL3 PSA-Luc plasmid by using the Lipofectamine 2000 Reagent (Invitrogen, Cat. #11668-019) and serum-free Opti-MEM I media (Invitrogen, Cat #31985-070) according to the manufacturer's optimized conditions. Transfection was conducted at 37° C. with 5% CO2 for 16-18 hours. Following transfection, cells are washed, treated with trypsin, counted, and seeded in a 96-well plate at 30,000 cells per well in DMEM containing 10% Charcoal/Dextran Treated Fetal Bovine Serum (Gibco Cat. #11054-020) for MDA-MB-453 cells or RPMI 1640 (Gibco Cat. #110835) containing 10% FBS (Invitrogen/GIBCO Life Science) for 22 RV1 cells.
Following transfection, cells were incubated in the absence (blank) or presence (control) of 3 nM DHT (Sigma, Cat. #A-8380) and in the presence or absence of the standard antiandrogen bicalutamide or test compounds ranging in concentrations from 10^−10 to 10^−5M. Duplicates were used for each sample. The compound dilutions were performed by the Tecan Genesis (Tecan, Triangle Park, N.C.). After a 48 hour incubation, luciferase activity was measured using the Steady-Glo Luciferase Assay System (Promega, Cat. #E2550) according to manufacturer's specifications and luminescence was measured on a Packard TopCount (PerkinElmer). For each luciferase sample reading, the percent control (in absence of compounds) was calculated as: % Control=100×[averagesample−averageblank]/[averagecontrol−averageblank] Data was plotted and the IC50 value was defined as the concentration of compound that inhibited 50% of the luciferase activity for the controls.
Compounds described herein were tested in the AR transactivation assay described immediately above, using MDA-MB-453 cells.

[1] = system: immature castrated male rats; experiment: Immature Rat Prostate Weight (IRPW) Assay; assay type: in vivo, rat (Sprague-Dawley); details: for response vs control in vivo at 3 mg/kg: Rattus norvegicus, 96 h, read-out: IRPW SV/FB (% control); for EC50 (increase in organ weight, VP and SV): dosing for 3 days
[2] = immature castrated rats, 3 mpk PO QD × 4 days

| Compound | IC50 (androgen receptor (AR)) [nM] | other results |
| --- | --- | --- |
| C[C@]12O[C@@]3(CCO[C@H]4[C@@H]3[C@@H]1C(=O)N4c1ccc(C#N)c(C(F)(F)F)c1)[C@H](NS(C)(=O)=O)[C@H]2O [Example 246, N-((1R,2R,3R,4S,5S,8S,12R)-7-(4-Cyano-3-(trifluoromethyl)phenyl)-3-hydroxy-4-methyl-6-oxo-9,13-dioxa-7-azatetracyclo[6.3.1.1^1,4.0^5,12]tridec-2-yl)methanesulfonamide] | 280 | response vs control in vivo at 3 mg/kg ([1]; po): 98% |
| CCS(=O)(=O)N[C@H]1C[C@@]2(C)O[C@@]13CCO[C@H]1[C@@H]3[C@@H]2C(=O)N1c1ccc(C#N)c(OC(F)(F)F)c1 [Example 188, N-((1R,2S,4R,5S,8S,12R)-7-(4-Cyano-3-(trifluoromethoxy)phenyl)-4-methyl-6-oxo-9,13-dioxa-7-azatetracyclo[6.3.1.1^1,4.0^5,12]tridec-2-yl)ethanesulfonamide] | – | IC50 (androgen receptor (AR); read-out: IC50): 383 nM; response vs control in vivo at 3 mg/kg [1, 2]: 33% |
| C[C@]12O[C@@]3(CCO[C@H]4[C@@H]3[C@@H]1C(=O)N4c1ccc(C#N)c(C(F)(F)F)c1)C[C@@H]2O [Example 156, 4-((1S,3S,4S,5S,8S,12R)-3-hydroxy-4-methyl-6-oxo-9,13-dioxa-7-azatetracyclo[6.3.1.1^1,4.0^5,12]tridec-7-yl)-2-(trifluoromethyl)benzonitrile] | 304 | response vs control in vivo at 3 mg/kg ([1]; po): 64% |
| C[C@@]12C[C@H](O)[C@]3(CCO[C@H]4[C@@H]3[C@@H]1C(=O)N4c1ccc(Cl)c(C#N)c1)O2 [Example 120, 2-Chloro-5-((1R,2S,4R,5S,8S,12R)-2-hydroxy-4-methyl-6-oxo-9,13-dioxa-7-azatetracyclo[6.3.1.1^1,4.0^5,12]tridec-7-yl)benzonitrile] | – | IC50 (androgen receptor (AR); read-out: IC50): 1650 nM; response vs control in vivo at 3 mg/kg [1, 2]: 80% |
| C[C@]12CC[C@H]3[C@@H](CCC4=CC(=O)CC[C@@]43C)[C@@H]1CC[C@@H]2O [T, testosterone, reference compound] | – | EC50 (increase in organ weight, VP and SV) ([1]; immature castrated rats): about 1 mg |
| CCS(=O)(=O)N[C@H]1C[C@@]23CCO[C@H]4[C@@H]2[C@H](C(=O)N4c2ccc(C#N)c(C(F)(F)F)c2)[C@]1(C)O3 [Example 222, N-((1R,3S,4S,5S,8S,12R)-7-(4-cyano-3-(trifluoromethyl)phenyl)-4-methyl-6-oxo-9,13-dioxa-7-azatetracyclo[6.3.1.1^1,4.0^5,12]tridec-3-yl)ethanesulfonamide] | 58 | – |
| CCC(=O)O[C@H]1CC[C@H]2[C@@H]3CCC4=CC(=O)CC[C@]4(C)[C@H]3CC[C@]12C [TP, Testosterone Propionate, reference compound] | – | potency relative to free T ([1]; TP versus free T, immature castrated rats): 10-30 fold; EC50 (increase in organ weight, VP and SV) ([1]; immature castrated rats): ~0.03 mg |
| C[C@@]12C[C@H](O)[C@]3(CCO[C@H]4[C@@H]3[C@@H]1C(=O)N4c1cc(Cl)cc(Cl)c1)O2 [Example 117, (1R,2S,4R,5S,8S,12R)-7-(3,5-dichlorophenyl)-2-hydroxy-4-methyl-9,13-dioxa-7-azatetracyclo[6.3.1.1^1,4.0^5,12]tridecan-6-one] | – | IC50 (androgen receptor (AR); read-out: IC50): 2480 nM |
| CC[C@]12C[C@@H](O)[C@@]3(CCO[C@@H]4[C@H]3[C@H]1C(=O)N4c1ccc(C#N)c(C(F)(F)F)c1)O2 (single isomer, unassigned) [Example 59] | ≥ 7500 | – |
| CC(=O)N[C@@H]1[C@@H](O)[C@]23CCO[C@@H]4[C@H]2[C@@H](C(=O)N4c2ccc(C#N)c(C(F)(F)F)c2)[C@@]1(C)O3 (stereo in doubt) [Example 254, N-((1S,2R,3R,4R,5R,8R,12S)-7-(4-cyano-3-(trifluoromethyl)phenyl)-2-hydroxy-4-methyl-6-oxo-9,13-dioxa-7-azatetracyclo[6.3.1.1^1,4.0^5,12]tridec-3-yl)acetamide] | 4950 | – |
| C[C@@]12C[C@H](N)[C@]3(CCO[C@H]4[C@@H]3[C@@H]1C(=O)N4c1ccc(C#N)c(Cl)c1)O2 [Example 45, 4-((1R,2S,4R,5S,8S,12R)-2-amino-4-methyl-6-oxo-9,13-dioxa-7-azatetracyclo[6.3.1.1^1,4.0^5,12]tridec-7-yl)-2-chlorobenzonitrile] | 12800 | – |
| C[C@@]12O[C@]3(CCO[C@]4(C)[C@H]3[C@H]1C(=O)N4c1ccc(C#N)c(C(F)(F)F)c1)C[C@@H]2O (single isomer, unassigned) [Example 26] | > 7500 | – |
| CNS(=O)(=O)N[C@H]1C[C@@]2(C)O[C@@]13CCO[C@H]1[C@@H]3[C@@H]2C(=O)N1c1ccc(C#N)c(Cl)c1 [Example 47, N-((1R,2S,4R,5S,8S,12R)-7-(3-Chloro-4-cyanophenyl)-4-methyl-6-oxo-9,13-dioxa-7-azatetracyclo[6.3.1.1^1,4.0^5,12]tridec-2-yl)-N′-methylsulfamide] | 1610 | – |
| CCS(=O)(=O)N[C@H]1C[C@@]2(C)O[C@@]13CCO[C@H]1[C@@H]3[C@@H]2C(=O)N1c1ccc(C#N)c(C(F)(F)F)c1F [Example 190, N-((1R,2S,4R,5S,8S,12R)-7-(4-Cyano-2-fluoro-3-(trifluoromethyl)phenyl)-4-methyl-6-oxo-9,13-dioxa-7-azatetracyclo[6.3.1.1^1,4.0^5,12]tridec-2-yl)ethanesulfonamide] | 2270 | – |
| C[C@@]12C[C@H](NC(=O)OCCO)[C@]3(CCO[C@H]4[C@@H]3[C@@H]1C(=O)N4c1ccc(C#N)c(C(F)(F)F)c1)O2 [Example 162, 2-Hydroxyethyl ((1R,2S,4R,5S,8S,12R)-7-(4-cyano-3-(trifluoromethyl)phenyl)-4-methyl-6-oxo-9,13-dioxa-7-azatetracyclo[6.3.1.1^1,4.0^5,12]tridec-2-yl)carbamate] | 1960 | – |
| N#Cc1ccc(N2C(=O)[C@@H]3[C@@H]4[C@H]2OCC[C@@]42CC[C@@H]3O2)cc1C(F)(F)F (single isomer, unassigned) [Example 53] | 1200 | – |
| C[C@]12O[C@@]3(CCO[C@H]4[C@@H]3[C@@H]1C(=O)N4c1ccc(Cl)c(F)c1)C[C@H]2O [Example 138, (1S,3R,4S,5S,8S,12R)-7-(4-chloro-3-fluorophenyl)-3-hydroxy-4-methyl-9,13-dioxa-7-azatetracyclo[6.3.1.1^1,4.0^5,12]tridecan-6-one] | – | IC50 (androgen receptor (AR); read-out: IC50): 6050 nM |
| CCC(=O)N[C@H]1C[C@@]2(C)O[C@@]13CCO[C@H]1[C@@H]3[C@@H]2C(=O)N1c1ccc(C#N)c(Cl)c1 [Example 214, N-((1R,2S,4R,5S,8S,12R)-7-(3-chloro-4-cyanophenyl)-4-methyl-6-oxo-9,13-dioxa-7-azatetracyclo[6.3.1.1^1,4.0^5,12]tridec-2-yl)propanamide] | 5650 | – |

Reference: US8067582B2 (Bristol-Myers Squibb Company, priority 2007, dated 2011)
